Values after ≈ are worked out from the molar mass of the structure shown.
Experiments:
[1] = test system: leukotriene biosynthesis (mouse peritoneal macrophages); assay: Mouse Macrophage Assay (leukotriene inhibition); type: cell-based; details: zymosan stimulated, read-out: LEUKOTRIENE INHIBITION MACROPHAGE ED50
Experimental: Representative compounds of Formula I have been tested using the following assay to determine their mammalian leukotriene biosynthesis inhibiting activity.
Mouse peritoneal macrophages were treated sequentially with arachidonic acid (labelled with tritium); the compound being evaluated as an inhibitor, and a stimulator (zymosan). Metabolites derived from arachidonic acid (PGE2, 6-keto PG-F1α and Leukotriene C4) were separated from the incubation medium by extraction and chromatography, and then quantitated by determining the amount of radioactivity (cpm) associated with each of them. […] (This protocol is identical to that described in the reference except that the radioactivity herein associated with the LTC4 was determined by counting an aliquot of the final aqueous solution directly rather than chromatographying it first).
Reference: Humes, J. L. et al., J. Biol. Chem. 257, 1591-4 (1982).
The following table (Table II) reflects the leukotriene biosynthesis inhibiting ability of selected compounds of Formula I.

[2] = test system: PAF-induced hyperalgesia (female Sprague-Dawley rats); assay: PAF-Induced Hyperalgesia Assay; type: in vivo, rat; details: p.o.
Experimental: PAF-Induced Hyperalgesia Assay
Female Sprague-Dawley rats, 35-40 g were fasted overnight. Platelet activating factor, PAF, (L-lecithin B-acetyl O-alkyl) 1 μg/0.1 ml was given by subplantar injection in the rat paw. The compounds to be evaluated were homogenized in Aqueous Vehicle (0.9% benzyl alcohol, 0.5% Tween 80 and 0.4% methylcellulose) and administered orally in a volume of 0.1 ml, 30 minutes prior to PAF.
Animals were tested 1, 2, 3 and 4 hours after PAF administration. The vocalization threshold, defined as the pressure (mmHg) needed to evoke a squeak response, was recorded for both the injected and contralateral paw. No animal was subjected to pressure greater than 60 mmHg. Hyperalgesia is defined as a decrease in vocalization threshold as compared to a normal paw. Percent inhibition of hyperalgesia was calculated as the proportion of animals with vocalization thresholds greater than 200% of controls.

asthmatic rats = assay: Asthmatic Rat Assay (duration of antigen-induced dyspnea); type: in vivo
From the text: Rats were obtained from an inbred line of asthmatic rats. Both female and male rats from 200 to 300 g were used.
Egg albumin (EA), grade V, crystallized and lyophilized, was obtained from Sigma Chemical Co., St. Louis, Bordetella pertussis vaccine, containing 30×10^9 killed bacteria per ml was obtained from the Institut Armand-Frappier, Laval des Rapides, Quebec. Aluminum hydroxide was obtained from the Regis Chemical Company, Chicago.
The challenge and subsequent respiratory recordings were carried out in a clear plastic box with internal dimensions 10×6×4 inches. The top of the box was removable; in use, it was held firmly in place by four clamps and an airtight seal was maintained by a soft rubber gasket. […] A Fleisch No. 0000 pneumotachograph was inserted into one end of the box and coupled to a Grass volumetric pressure transducer (PT5-A) which was then connected to a Beckman Type R Dynograph through appropriate couplers. While aerosolizing the antigen, the outlets were open and the pneumatachograph was isolated from the chamber. The outlets were closed and the pneumotachograph and the chamber were connected during the recording of the respiratory patterns. […]
Rats were sensitized by injecting (s.c.) 1 ml of a suspension containing 1 mg EA and 200 mg aluminum hydroxide in saline. […] Rats were then exposed to an aerosol of 3% EA in saline for exactly 1 minute, then their respiratory profiles were recorded for a further 25-30 minutes. The duration of continuous dyspnea was measured from the respiratory recordings.
Compounds were generally administered either intraperitoneally 1 hour prior to challenge or orally 11/2 hours prior to challenge. […] Their activity was determined in terms of their ability to decrease the duration of symptoms of dyspnea in comparison with a group of vehicle-treated controls. Usually, a compound was evaluated at a series of doses and an ED50 was determined. […]

Row | SMILES | IC50 [1] [µg/mL] | other results
1 | CCOC(=O)c1oc2cccc(OC(=S)N(C)C)c2c1C | 2.5 to 5 (≈ 8.13 to 16.3 µM) | –
2 | CCOC(=O)c1oc2cccc(SC(=O)N(C)C)c2c1C | 5 (≈ 16.3 µM) | –
3 | CC(=O)Oc1cccc2oc(C(=O)Nc3ccccc3)c(C)c12 | 0.2 (≈ 0.647 µM) | –
4 | CC(=O)Oc1cccc2oc(C(=O)Nc3ccc(Cl)cc3)c(C)c12 | 0.2 (≈ 0.582 µM) | –
5 | Cc1c(C(=O)O)oc2cccc(O)c12 | 5 (≈ 26 µM) | –
6 | CCOC(=O)c1oc2cccc(O)c2c1C [drawing 82] | 0.2 (≈ 0.908 µM) | –
7 | Cc1c(C(=O)OC(C)(C)C)oc2cccc(O)c12 [drawing 83] | 1 (≈ 4.03 µM) | –
8 | CCOC(=O)c1oc2cccc(OC(C)=O)c2c1C [drawing 86] | 5 (≈ 19.1 µM) | –
9 | Cc1c(C(=O)Nc2ccccc2)oc2cccc(O)c12 [drawing 90] | 1 to 5 (≈ 3.74 to 18.7 µM) | –
10 | Cc1c(C(=O)NNc2ccccc2)oc2cccc(O)c12 [drawing 91] | 1 (≈ 3.54 µM) | –
11 | Cc1c(C(=O)NNc2ccc(Cl)cc2)oc2cccc(O)c12 [drawing 92] | 1 (≈ 3.16 µM) | –
12 | CCOC(=O)c1oc2cccc(O)c2c1C [drawing 93] | – | PAF HYPERALGESIA (percent inhibition of hyperalgesia) ([2]; 10 mg/kg): 10%; ASTHMATIC RAT (% inhibition of duration of dyspnea) (asthmatic rats; 5 mg/kg, i.v.): 38%
13 | Cc1c(C(=O)OC(C)(C)C)oc2cccc(O)c12 [drawing 94] | – | PAF HYPERALGESIA (percent inhibition of hyperalgesia) ([2]; 10 mg/kg): 60%; ASTHMATIC RAT (% inhibition of duration of dyspnea) (asthmatic rats; 15 mg/kg, p.o.): 41%
14 | CCOC(=O)c1oc2cccc(OC(C)=O)c2c1C [drawing 95] | – | PAF HYPERALGESIA (percent inhibition of hyperalgesia) ([2]; 10 mg/kg): 50%; ASTHMATIC RAT (% inhibition of duration of dyspnea) (asthmatic rats; 5 mg/kg, i.v.): 63%
15 | Cc1c(C(=O)Nc2ccccc2)oc2cccc(O)c12 [drawing 96] | – | PAF HYPERALGESIA (percent inhibition of hyperalgesia) ([2]; 1.03 mg/kg): 60%
16 | Cc1c(C(=O)NNc2ccccc2)oc2cccc(O)c12 [drawing 97] | – | PAF HYPERALGESIA (percent inhibition of hyperalgesia) ([2]; 20 mg/kg): 50%
17 | Cc1c(C(=O)NNc2ccc(Cl)cc2)oc2cccc(O)c12 [drawing 98] | – | PAF HYPERALGESIA (percent inhibition of hyperalgesia) ([2]; 1 mg/kg): 60%

From patent US4663347A, “Benzofuran 2-carboxylic acid esters useful as inhibitors of leukotriene biosynthesis” (Merck Frosst Canada, Inc., priority 1985, dated 1987)
